Patent US20040116501A1, “Treatment of nonallergic rhinitis by selective phosphodiesterase 4 inhibitors” (priority 2002, published 2004)
Read-outs that look alike come from different tables or passages of the source. Marks after values point to notes of the source that are not given here.

System: acetic acid-induced vascular permeability of the rat nasal mucosa
Experiment: Acetic acid-induced vascular permeability in Sprague-Dawley rats (nonallergic rhinitis model), Evans Blue in nasal perfusate
Assay type: in vivo
Settings: for inhibition of the vascular permeability of the nasal mucosa (in words): test range from 0.1 to 10 μmol/l
Experimental: Effect on Acetic Acid-Induced Vascular Permeability in Sprague-Dawley Rats (Nonallergic Rhinitis Model)
Male Sprague-Dawley rats weighing 280-320 g are anesthetized on the day of the experiment by i.p. injection of 0.9-1 ml/animal of a 2.5% strength thiopental sodium solution. The trachea is then exposed below the epiglottis and incised at two points. A polyethylene catheter is pushed into the lower opening in the trachea in the direction of the lung (orthograde) and secured by tying with twine in order to maintain breathing. A second polyethylene catheter with LUER lock connector (cut from Original-Perfusor® line) for retrograde perfusion of the nasal cavity is introduced into the upper opening and advanced retrogradely as far as the inner opening of the choanae so that the solution can flow through the nasal cavity. 8 animals in total are placed individually on their backs on specially fabricated plastic tables in such a way that the perfusion fluid can drip out of the nostrils and be collected in the fraction collector.
During this, half of the head looks with the nose beyond the edge of the table.
A polyethylene infusion line is connected to the LUER lock connector of the catheter which has been secured retrogradely in each animal and is immersed in the container with the prepared perfusion fluid via a roller pump. The roller pump is adjusted to a constant delivery of 0.5 ml of fluid/min. A red lamp is switched on over the animals for warming.
Initial perfusion of the nasal cavity with PBS for 30 min serves to wash out the nasal mucus. During this, the fraction collector is switched on and the perfusate dripping out of the nostrils is collected in 15 min fractions (2 fractions). The second fraction is used as normal value for the experiment.
The test substances are administered topically before administration of acetic acid. They are added to the perfusion medium (PBS, Dulbecco) in molar concentrations. 4.6 mg of AWD 12-281 or other test substances such as AWD 12-322 or AWD 12-298 are diluted in accordance with their molecular weight (4.6 mg of AWD 12-322 or 5.2 mg of AWD 12-298) with 1 ml of 1N NaOH and then made up to 10 ml with double-distilled H2O. […] These solutions are perfused through the noses using the roller pump for 30 min, and the 2 samples obtained from the fraction collector are discarded. The roller pump is then switched off.
After perfusion with the substance, the plasma marker Evans Blue (1% strength solution in PBS) is injected, 1 ml per animal, into the jugular vein and then 0.1% strength acetic acid solution is forced through tubings and roller pumps into the nasal cavity until 2-3 drops of acetic acid solution drip from the conchae. The roller pumps are then switched off. The acetic acid solution is left in the nasal cavity for 30 minutes in order to ensure complete permeation of the nasal mucosa.
After an exposure time of 30 minutes, the roller pumps and the fraction collector are switched on again, and the 0.1% strength acetic acid solution in PBS is perfused retrogradely (with a constant delivery of 0.5 ml liquid/min) through the nasal cavity for 60 min. During this, the perfusate dripping out of the nostrils is continuously received in glass tubes and collected in 4 periods of 15 min. Aliquots of the samples including the control samples are placed on microtiter plates and measured using a Digiscan photometer at a wavelength of 620 nm relative to the control sample (blank). […] The Evans Blue content in 4 collected fractions, each selected over 15 minutes, of the perfusate flowing out in μg/ml is calculated by formula 1: [formula]
tn time interval (15 min)
yn Evans Blue content per time interval (μg/l per 15 min)
The means and standard deviations (x±SD) of the AUC′ for individual animals in a control group or a group of animals pretreated with substance are calculated. The inhibition of the vascular permeability is stated in percent.

[1] = acetic acid-induced rhinitis in rats
[2] = test substance concentration 0.1 μmol/l, single 30-minute nasal perfusion before 0.1% acetic acid, rat
[3] = test substance concentration 1 μmol/l, single 30-minute nasal perfusion before 0.1% acetic acid, rat
[4] = test substance concentration 3 μmol/l, single 30-minute nasal perfusion before 0.1% acetic acid, rat
[5] = test substance concentration 10 μmol/l, single 30-minute nasal perfusion before 0.1% acetic acid, rat
[6] = test substance concentration 1 μmol/l, single 30-minute nasal perfusion before 0.1% acetic acid, rat, vs vehicle control
[7] = test substance concentration 3 μmol/l, single 30-minute nasal perfusion before 0.1% acetic acid, rat, vs vehicle control
[8] = test substance concentration 10 μmol/l, single 30-minute nasal perfusion before 0.1% acetic acid, rat, vs vehicle control

Row | Structure (SMILES) | inhibition of the vascular permeability of the nasal mucosa (in words) [1] | Evans Blue content (μg/ml) in the perfusate AUC′ x ± SD [2] | Evans Blue content (μg/ml) in the perfusate AUC′ x ± SD [3] | Evans Blue content (μg/ml) in the perfusate AUC′ x ± SD [4] | Evans Blue content (μg/ml) in the perfusate AUC′ x ± SD [5] | % Inhibition [6] | % Inhibition [7] | % Inhibition [8] | also measured
1 | O=C(Nc1c(Cl)cncc1Cl)C(=O)c1cn(Cc2ccc(F)cc2)c2ccc(O)cc12 [AWD 12-281, N-(3,5-dichloropyrid-4-yl)-[1-(4-fluorobenzyl)-5-hydroxyindol-3-yl]glyoxylamide] | concentration-dependent inhibition | 10.88 ± 8.45 µg/mL | 5.96 ± 7.97 µg/mL | 6.41 ± 5.81 µg/mL | 3.68 ± 4.40 µg/mL |  |  |  | inhibition at 0.1 µM (0.5 h, test substance concentration 0.1 μmol/l, single 30-minute nasal perfusion before 0.1% acetic acid, rat, vs vehicle control, read-out: % Inhibition): 29%; inhibition at 1 µM (0.5 h, test substance concentration 1 μmol/l, single 30-minute nasal perfusion before 0.1% acetic acid, rat, vs vehicle control, read-out: % Inhibition): 61%; inhibition at 3 µM (0.5 h, test substance concentration 3 μmol/l, single 30-minute nasal perfusion before 0.1% acetic acid, rat, vs vehicle control): 58%; inhibition at 10 µM (0.5 h, test substance concentration 10 μmol/l, single 30-minute nasal perfusion before 0.1% acetic acid, rat, vs vehicle control, read-out: % Inhibition): 76%
2 | CCOC(C)=O.O=C(Nc1c(Cl)cncc1Cl)C(=O)c1cn(Cc2c(F)cccc2F)c2ccc(O)cc12.O=C(Nc1c(Cl)cncc1Cl)C(=O)c1cn(Cc2c(F)cccc2F)c2ccc(O)cc12 [AWD 12-298, N-(3,5-dichloropyrid-4-yl)-[1-(2,6-difluorobenzyl)-5-hydroxyindol-3-yl]glyoxylamide semi-ethyl acetate] |  |  | 17.72 ± 9.31 µg/mL | 8.43 ± 5.56 µg/mL | 6.03 ± 7.11 µg/mL | 0% | 49% | 64* % | activity in the model of acetic acid-induced rhinitis (in words) (concentration range from 3 to 10 μmol/l, rats): concentration-dependent activity
3 | O=C(Nc1c(Cl)cncc1Cl)C(=O)c1cn(Cc2ccc(O)cc2)c2ccc(O)cc12 [AWD 12-322, N-(3,5-dichloropyrid-4-yl)-2-[5-hydroxy-1-(4-hydroxybenzyl)-1H-indol-3-yl]glyoxylamide] | concentration-dependent inhibition | 13.77 ± 6.65 µg/mL | 7.25 ± 6.77 µg/mL |  | 2.62 ± 3.44 µg/mL |  |  |  | inhibition at 0.1 µM (Rattus norvegicus, 0.5 h): 5%; inhibition at 1 µM (Rattus norvegicus, 0.5 h): 50%; inhibition at 10 µM (Rattus norvegicus, 0.5 h): 82%
4 | C[C@H]1C[C@H]2[C@@H]3CCC4=CC(=O)C=C[C@]4(C)[C@@]3(Cl)[C@@H](O)C[C@]2(C)[C@@]1(O)C(=O)CO [Beclomethasone, beclomethasone, reference compound] |  | 4.93 ± 3.19 µg/mL | 0.93 ± 1.80 µg/mL | 5.51 ± 7.12 µg/mL | 4.86 ± 8.08 µg/mL | 95** % | 68* % | 81** % | effect against the vascular plasma permeability induced by acetic acid in the nasal mucosa (in words) (rat rhinitis model, summary statement): dose-dependent effect; activity compared with the PDE4 inhibitors (in words) (standard therapeutic agents, acetic acid-induced rhinitis in rats): approximately the same activity; Evans Blue content (μg/ml) in the perfusate AUC′ x ± SD (test substance concentration 0.01 μmol/l, single 30-minute nasal perfusion before 0.1% acetic acid, rat): 10.70 ± 2.38 µg/mL; % Inhibition (test substance concentration 0.01 μmol/l, single 30-minute nasal perfusion before 0.1% acetic acid, rat, vs vehicle control): 38%; % Inhibition (test substance concentration 0.1 μmol/l, single 30-minute nasal perfusion before 0.1% acetic acid, rat, vs vehicle control): 72* %
